# In ChEMBL document CHEMBL5705887, “Distinct concentration-dependent effects of the polo-like kinase 1-specific inhibitor GSK461364A, including differential effect on apoptosis” (Cancer Res, 2009):
# Active and inactive are the calls of the source. No cut-off for these calls is given here.
# How the values were obtained:
# SK-BR-3 [1] = assay: Antiproliferative activity against human SK-BR-3 cells assessed as of viable cell signal at minimum maximum cell growth incubated for 72 hrs by celltiter-glo assay relative to control; type: functional
# MCF7 = assay: Antiproliferative activity against human MCF7 cells assessed as viable cell signal at maximum growth inhibition incubated for 72 hrs by celltiter-glo assay relative to control; type: functional
# A498 = assay: Antiproliferative activity against human A498 cells assessed as growth inhibition incubated for 72 hrs by celltiter-glo assay; type: functional
# A549 [2] = assay: Induction of mitotic arrest in human A549 cells assessed as disordered spindle formation at 313 nmol/L incubated for 16 hrs by alpha-tubulin/DAPI staining based confocal microscopic analysis; type: functional, cell-based
# BXPC-3 = assay: Antiproliferative activity against human BXPC-3 cells assessed as growth inhibition incubated for 72 hrs by celltiter-glo assay; type: functional
# MDA-MB-231 [3] = assay: Antiproliferative activity against human MDA-MB-231 cells assessed as of viable cell signal at minimum maximum cell growth incubated for 72 hrs by celltiter-glo assay relative to control; type: functional
# HT-29 = assay: Antiproliferative activity against human HT-29 cells assessed as growth inhibition incubated for 72 hrs by celltiter-glo assay; type: functional
# SK-MEL-28 = assay: Antiproliferative activity against human SK-MEL-28 cells assessed as viable cell signal at maximum growth inhibition incubated for 72 hrs by celltiter-glo assay relative to control; type: functional
# OVCAR-4 [4] = assay: Antiproliferative activity against human OVCAR-4 cells assessed as of viable cell signal at minimum maximum cell growth incubated for 72 hrs by celltiter-glo assay relative to control; type: functional
# OVCAR-3 = assay: Antiproliferative activity against human OVCAR-3 cells assessed as of viable cell signal at minimum maximum cell growth incubated for 72 hrs by celltiter-glo assay relative to control; type: functional
# NCI-H1155 = assay: Antiproliferative activity against human NCI-H1155 cells assessed as of viable cell signal at minimum maximum cell growth incubated for 72 hrs by celltiter-glo assay relative to control; type: functional
# HCT-116 = assay: Antiproliferative activity against human HCT-116 cells assessed as of viable cell signal at minimum maximum cell growth incubated for 72 hrs by celltiter-glo assay relative to control; type: functional
# COLO 205 [5] = assay: Antitumor activity against human COLO 205 cells xenografted in Nude mouse assessed as tumor growth delay time at 50 mg/kg, ip administered for 12 days; type: functional; conditions: time 12 day
# HCT-15 = assay: Antiproliferative activity against human HCT-15 cells assessed as growth inhibition incubated for 72 hrs by celltiter-glo assay; type: functional
# LoVo = assay: Antiproliferative activity against human LoVo cells assessed as growth inhibition incubated for 72 hrs by celltiter-glo assay; type: functional
# A549 [6] = assay: Antimitotic activity against human A549 cells assessed as cell cycle block in G2-M phase measuring by accumulation of 4N DNA content at 10 nmol/L incubated for 24 hrs by PI staining based flow cytometric analysis; type: functional
# THP-1 [7] = assay: Antiproliferative activity against human THP-1 cells assessed as viable cell signal at maximum growth inhibition incubated for 72 hrs by celltiter-glo assay relative to control; type: functional
# OVCAR-8 = assay: Antiproliferative activity against human OVCAR-8 cells assessed as viable cell signal at maximum growth inhibition incubated for 72 hrs by celltiter-glo assay relative to control; type: functional
# A2780 = assay: Antiproliferative activity against human A2780 cells assessed as of viable cell signal at minimum maximum cell growth incubated for 72 hrs by celltiter-glo assay relative to control; type: functional
# SK-MEL-2 = assay: Antiproliferative activity against human SK-MEL-2 cells assessed as viable cell signal at maximum growth inhibition incubated for 72 hrs by celltiter-glo assay relative to control; type: functional
# SW-620 = assay: Antiproliferative activity against human SW620 cells assessed as of viable cell signal at minimum maximum cell growth incubated for 72 hrs by celltiter-glo assay relative to control; type: functional
# NCI-H322M = assay: Antiproliferative activity against human NCI-H322M cells assessed as viable cell signal at maximum growth inhibition incubated for 72 hrs by celltiter-glo assay relative to control; type: functional
# NCI-H522 = assay: Antiproliferative activity against human NCI-H522 cells assessed as growth inhibition incubated for 72 hrs by celltiter-glo assay; type: functional
# MDA-MB-231 [8] = assay: Antiproliferative activity against human MDA-MB-231 cells assessed as growth inhibition incubated for 72 hrs by celltiter-glo assay; type: functional
# SK-MEL3 = assay: Antiproliferative activity against human SK-MEL3 cells assessed as of viable cell signal at minimum maximum cell growth incubated for 72 hrs by celltiter-glo assay relative to control; type: functional
# OVCAR-4 [9] = assay: Antiproliferative activity against human OVCAR-4 cells assessed as growth inhibition incubated for 72 hrs by celltiter-glo assay; type: functional
# SCLC = assay: Antiproliferative activity against human SCLC cells assessed as viable cell signal at maximum growth inhibition incubated for 72 hrs by celltiter-glo assay relative to control; type: functional
# A-431 = assay: Antiproliferative activity against human A-431 cells assessed as viable cell signal at maximum growth inhibition incubated for 72 hrs by celltiter-glo assay relative to control; type: functional
# NCI-H157 = assay: Antiproliferative activity against human NCI-H157 cells assessed as of viable cell signal at minimum maximum cell growth incubated for 72 hrs by celltiter-glo assay relative to control; type: functional
# U-87 MG = assay: Antiproliferative activity against human U-87 MG cells assessed as viable cell signal at maximum growth inhibition incubated for 72 hrs by celltiter-glo assay relative to control; type: functional, U-87MG ATCC
# COLO 205 [10] = assay: Antitumor activity against human COLO 205 cells xenografted in Nude mouse assessed as increase in pHH3 level at 50 to 100 mg/kg, ip measured at 24 to 48 hrs by immunohistochemistry analysis; type: functional, organism-based; conditions: dose 50-100 mg/kg, time 24-48 hrs
# SK-BR-3 [11] = assay: Antiproliferative activity against human SK-BR-3 cells assessed as viable cell signal at maximum growth inhibition incubated for 72 hrs by celltiter-glo assay relative to control; type: functional
# PC-3 = assay: Antiproliferative activity against human PC-3 cells assessed as of viable cell signal at minimum maximum cell growth incubated for 72 hrs by celltiter-glo assay relative to control; type: functional
# A549 [12] = assay: Induction of mitotic arrest in human A549 cells assessed as disordered spindle formation at 20 nmol/L incubated for 16 hrs by alpha-tubulin/DAPI staining based confocal microscopic analysis; type: functional, cell-based
# THP-1 [13] = assay: Antiproliferative activity against human THP-1 cells assessed as growth inhibition incubated for 72 hrs by celltiter-glo assay; type: functional
# COLO 205 [14] = assay: Antitumor activity against human COLO 205 cells xenografted in Nude mouse assessed as tumor regression at 50 mg/kg, ip administered one dose every 2 day repeated for 12 days; type: functional, organism-based; conditions: time 12.0 day
# SK-MEL-5 = assay: Antiproliferative activity against human SK-MEL-5 cells assessed as viable cell signal at maximum growth inhibition incubated for 72 hrs by celltiter-glo assay relative to control; type: functional
# [15] = target: Testis-specific serine/threonine-protein kinase 1 (Homo sapiens) (UniProt Q9BXA7); assay: Inhibition of full length his6-tagged recombinant human TSSK1 expressed in baculovirus Sf21 insect cells at 10 uM relative to control
# [16] = target: Ribosomal protein S6 kinase alpha-1 (Homo sapiens) (UniProt Q15418); assay: Inhibition of N-terminal his6-tagged recombinant human RSK1 (2 to end residues) expressed in baculovirus Sf21 insect cells at 10 uM relative to control
# Ribosomal protein S6 kinase alpha-1 (Homo sapiens), sequence (Q15418 whole entry): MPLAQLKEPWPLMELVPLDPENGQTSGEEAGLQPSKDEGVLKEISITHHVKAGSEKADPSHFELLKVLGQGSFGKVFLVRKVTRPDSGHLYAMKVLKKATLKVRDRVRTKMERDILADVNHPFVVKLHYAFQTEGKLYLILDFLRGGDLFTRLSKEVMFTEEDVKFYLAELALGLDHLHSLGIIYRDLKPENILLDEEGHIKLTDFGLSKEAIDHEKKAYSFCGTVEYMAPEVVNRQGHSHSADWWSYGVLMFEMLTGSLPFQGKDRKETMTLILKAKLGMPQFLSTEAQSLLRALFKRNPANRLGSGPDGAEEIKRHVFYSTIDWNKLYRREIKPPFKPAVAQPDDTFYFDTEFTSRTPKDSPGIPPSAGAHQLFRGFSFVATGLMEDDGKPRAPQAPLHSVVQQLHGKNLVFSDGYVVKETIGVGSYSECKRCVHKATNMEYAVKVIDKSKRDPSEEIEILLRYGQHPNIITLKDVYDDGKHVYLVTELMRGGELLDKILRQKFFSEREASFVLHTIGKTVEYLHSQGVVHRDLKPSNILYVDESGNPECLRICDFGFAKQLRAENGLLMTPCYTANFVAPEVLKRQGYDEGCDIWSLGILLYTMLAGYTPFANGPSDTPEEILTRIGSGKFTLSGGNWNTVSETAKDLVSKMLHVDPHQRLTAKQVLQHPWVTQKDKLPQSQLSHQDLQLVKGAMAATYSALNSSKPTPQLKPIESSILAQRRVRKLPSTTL
# Testis-specific serine/threonine-protein kinase 1 (Homo sapiens), sequence (Q9BXA7 whole entry): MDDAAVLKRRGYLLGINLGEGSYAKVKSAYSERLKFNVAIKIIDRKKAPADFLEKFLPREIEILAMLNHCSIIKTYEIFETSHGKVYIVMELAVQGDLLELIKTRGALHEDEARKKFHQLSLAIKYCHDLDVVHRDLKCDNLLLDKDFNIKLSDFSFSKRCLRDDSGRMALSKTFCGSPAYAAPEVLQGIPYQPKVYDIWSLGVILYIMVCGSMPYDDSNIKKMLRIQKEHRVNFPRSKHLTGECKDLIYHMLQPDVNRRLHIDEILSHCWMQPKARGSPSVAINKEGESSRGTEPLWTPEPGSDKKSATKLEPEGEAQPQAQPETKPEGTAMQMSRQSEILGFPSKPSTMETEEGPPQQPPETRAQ
structure (smiles),measurement,setting,value
C[C@@H](Oc1cc(-n2cnc3ccc(CN4CCN(C)CC4)cc32)sc1C(N)=O)c1ccccc1C(F)(F)F [GSK-461364],Emin,SK-BR-3 [1],54.6%
same,Emax,MCF7,429%
same,GI50,A498,40.4 nM
same,Activity,A549 [2],Active
same,GI50,BXPC-3,23.1 nM
same,Emin,MDA-MB-231 [3],37%
same,GI50,HT-29,8.1 nM
same,Emax,SK-MEL-28,353%
same,Emin,OVCAR-4 [4],164.7%
same,Emin,OVCAR-3,164%
same,Emin,NCI-H1155,119.2%
same,Emin,HCT-116,157.3%
same,Time,COLO 205 [5],62 days
same,GI50,HCT-15,90.8 nM
same,GI50,LoVo,12.2 nM
same,Activity,A549 [6],Active
same,Emax,THP-1 [7],349%
same,Emax,OVCAR-8,567%
same,Emin,A2780,68.5%
same,Emax,SK-MEL-2,422%
same,Emin,SW-620,54.6%
same,Emax,NCI-H322M,611%
same,GI50,NCI-H522,16.9 nM
same,GI50,MDA-MB-231 [8],9.15 nM
same,Emin,SK-MEL3,112.5%
same,GI50,OVCAR-4 [9],24.2 nM
same,Emax,SCLC,834%
same,Emax,A-431,820%
same,Emin,NCI-H157,95.3%
same,Emax,U-87 MG,632%
same,Activity,COLO 205 [10],Active
same,Emax,SK-BR-3 [11],300%
same,Emin,PC-3,385.1%
same,Activity,A549 [12],Active
same,GI50,THP-1 [13],11.8 nM
same,Activity,COLO 205 [14],Active
same,Emax,SK-MEL-5,258%
same,inhibition,[15],61%
same,inhibition,[16],72%
